Measured values from ChEMBL document CHEMBL4482324, “Ash1l inhibitors and methods of treatment therewith” (2017).

biological target: Histone-lysine N-methyltransferase ASH1L (Homo sapiens, UniProt Q9NR48); assay: Inhibition of MOCR-fused ASH1L SET-BAH ( 2069 to 2833 amino acids) (unknown origin) expressed as in Escherichia coli BL21 (DE3) T1R cells using SAM and chicken mono/dinucleosomes incubated for 1 hr by scintillation counting assay

Row | IC50 [µM] | SMILES
1 | < 20 | CCCS(=O)(=O)N1CCC(n2cc(-c3cccc(C(N)=S)c3)c3ccc(CNc4ncc(N)s4)cc32)CC1
2 | < 20 | NC(=S)c1cccc(-c2cn(CC(CF)CF)c3cc(CO)ccc23)c1
3 | 20 to 100 | NC(=S)c1cccc(-c2cn(CCO)c3cc([N+](=O)[O-])ccc23)c1
4 | 20 to 100 | NC(=S)c1cccc(-c2cn(CCCC(F)(F)F)c3cc(CN4CCNCC4)ccc23)c1
5 | < 20 | NCc1ccc2c(-c3cccc(C(N)=S)c3)cn(C3CCOCC3)c2c1
6 | > 100 | NC(=S)c1cccc(-c2ccc(O)c3c2CCC3)c1
7 | 20 to 100 | NC(=S)c1cccc(-c2cccc3nc(N)sc23)c1
8 | < 20 | NC(=S)c1cccc(-c2cn(C3CCC3)c3cc(CO)ccc23)c1
9 | < 20 | NC(=S)c1cccc(-c2cn(C3CCOCC3)c3cc(SCCO)ccc23)c1
10 | > 100 | COc1ccccc1-c1cccc(C(N)=S)c1
11 | 22 | NCCn1cc(-c2cccc(C(N)=S)c2)c2ccccc21
12 | < 20 | NC(=S)c1cccc(-c2cn(CCC(F)F)c3cc(CF)ccc23)c1
13 | < 20 | NC(=S)c1cccc(-c2cn(CC(CF)CF)c3cc(CF)ccc23)c1
14 | < 20 | NC(=S)c1cccc(-c2cn(CC(CF)C(F)F)c3cc(N)ccc23)c1 (stereo not given)
15 | > 100 | NC(=S)c1cccc(-c2ccc(O)c3c2CCC3O)c1 (stereo not given)
16 | < 20 | NC(=S)c1cccc(-c2cn(CC3(F)CCC3)c3cc(CO)ccc23)c1
17 | 20 to 100 | NC(=S)c1cccc(-c2cn(CCO)c3ccccc23)c1
18 | < 20 | NC(=S)c1cccc(-c2cn(CC3CCCC3)c3cc(N)ccc23)c1
19 | < 20 | CCCn1cncc1CC(=O)NCc1ccc2c(-c3cccc(C(N)=S)c3)cn(C3CCN(S(=O)(=O)CCC)CC3)c2c1
20 | < 20 | NC(=S)c1cccc(-c2cn(CCC(F)F)c3cc(CO)ccc23)c1
21 | < 20 | NC(=S)c1cccc(-c2cn(CC(C(F)F)C(F)F)c3cc(CO)ccc23)c1
22 | > 100 | Cc1cc2c(-c3cccc(C(N)=S)c3)cccc2n1C
23 | < 20 | CC1(Cn2cc(-c3cccc(C(N)=S)c3)c3ccc(CO)cc32)CC1
24 | < 20 | CCCS(=O)(=O)N1CCC(n2cc(-c3cccc(C(N)=S)c3)c3ccc(CNC(=O)Cc4c[nH]cn4)cc32)CC1
25 | < 20 | CCCNc1nnc(NCc2ccc3c(-c4cccc(C(N)=S)c4)cn(C4CCN(S(C)(=O)=O)CC4)c3c2)s1
26 | < 20 | NC(=S)c1cccc(-c2cn(CCCC(F)(F)F)c3cc(CO)ccc23)c1
27 | < 20 | NC(=S)c1cccc(-c2cn(C3CCCCC3)c3cc(CO)ccc23)c1

Row | IC50 [µM] | SMILES
28 | < 20 | NC(=S)c1cccc(-c2cn(CC3C(F)(F)COCC3(F)F)c3cc(CO)ccc23)c1
29 | < 20 | NC(=S)c1cccc(-c2cn(CC3CC3(F)F)c3cc(N)ccc23)c1 (stereo not given)
30 | < 20 | NC(=S)c1cccc(-c2cn(CCCC(F)(F)F)c3cc(N)ccc23)c1
31 | < 20 | NC(=S)c1cccc(-c2cn(CC(F)(F)F)c3cc(NCC(F)(F)F)ccc23)c1
32 | < 20 | NC(=S)c1cccc(-c2cn(CCC(F)F)c3cc(NC(=O)CC4CC4)ccc23)c1
33 | > 100 | Cc1cc(O)ccc1-c1cccc(C(N)=S)c1
34 | 20 to 100 | Cn1ccc2c(-c3cccc(C(N)=S)c3)cccc21
35 | > 100 | NC(=S)c1cccc(-c2ccc(O)cc2F)c1
36 | < 20 | CCCCn1cnc(CC(=O)NCc2ccc3c(-c4cccc(C(N)=S)c4)cn(C4CCOCC4)c3c2)c1
37 | < 20 | NC(=S)c1cccc(-c2cn(C3CCCC3)c3cc(N)ccc23)c1
38 | < 20 | CS(=O)(=O)N1CCC(n2cc(-c3cccc(C(N)=S)c3)c3ccc(CNc4nnc(N)s4)cc32)CC1
39 | < 20 | NC(=S)c1cccc(-c2cn(CC3CC(F)C(F)C3)c3cc(CO)ccc23)c1 (stereo not given)
40 | < 20 | CS(=O)(=O)N1CCC(n2cc(-c3cccc(C(N)=S)c3)c3ccc(CNC(=O)Nc4cc[nH]n4)cc32)CC1
41 | < 20 | NC(=S)c1cccc(-n2cc(C3CCCCC3O)c3cc(CO)ccc32)c1 (stereo not given)
42 | 20 to 100 | NC(=S)c1cccc(-c2cn(CO)c3ccccc23)c1
43 | < 20 | NC(=S)c1cccc(-c2cn(CCC3CC3)c3cc(CO)ccc23)c1
44 | < 20 | NC(=S)c1cccc(-c2cn(CCC(F)(F)F)c3cc(N)ccc23)c1
45 | < 20 | Cc1nc(CS(=O)(=O)NCc2ccc3c(-c4cccc(C(N)=S)c4)cn(C4CCN(S(C)(=O)=O)CC4)c3c2)cs1
46 | < 20 | NC(=S)c1cccc(-c2cn(CCC(F)F)c3cc(C(F)F)ccc23)c1
47 | < 20 | CS(=O)(=O)N1CCC(n2cc(-c3cccc(C(N)=S)c3)c3ccc(CNC(=O)Cc4[nH]cc5ccccc45)cc32)CC1
48 | < 20 | NC(=S)c1cccc(-c2cn(CC3(O)CCC3)c3cc(CO)ccc23)c1
49 | < 20 | NC(=S)c1cccc(-c2cn(CC(=O)C(F)(F)F)c3cc(CO)ccc23)c1
50 | < 20 | CCNc1c[nH]c(CC(=O)NCc2ccc3c(-c4cccc(C(N)=S)c4)cn(C4CCN(S(C)(=O)=O)CC4)c3c2)c1
51 | 20 to 100 | NC(=S)c1cccc(-c2c[nH]c3cc(C(N)=S)ccc23)c1
52 | < 20 | NC(=S)c1cccc(-c2cn(CC(F)(F)F)c3cc(N)ccc23)c1
53 | < 20 | NC(=O)c1cccc(-c2cn(CCC(F)F)c3cc(N)ccc23)c1

More lines, now with the values behind:

Row | SMILES | IC50 [µM]
54 | NC(=S)c1cccc(-c2ccc(CCC(F)F)c3[nH]ccc23)c1 | < 20
55 | N#Cc1cccc(-c2cn(CC(CO)C(F)F)c3cc(N)ccc23)c1 (stereo not given) | < 20
56 | NC(=S)c1cccc(-c2cn(CC(CO)(C(F)F)C(F)F)c3cc(C(O)CCF)ccc23)c1 (stereo not given) | < 20
57 | NC(=S)c1cc(-c2cccc3[nH]ccc23)ccc1N | > 100
58 | NC(=S)c1cccc(-c2cc(C(F)(F)F)cc3c2ccn3CCO)c1 | 20 to 100
59 | NC(=S)c1cccc(-c2cn(CCCC(F)(F)F)c3cc(CNC(=O)c4c[nH]cn4)ccc23)c1 | < 20
60 | NC(=S)c1cccc(-c2cn(CC(CO)(C(F)F)C(F)F)c3cc(C(O)CC(F)F)ccc23)c1 (stereo not given) | < 20
61 | NC(=S)c1cccc(-c2cn(CCC(F)F)c3cc4cc[nH]c4cc23)c1 | < 20
62 | Cc1cc(O)ccc1-c1cncc(C(N)=S)c1 | > 100
63 | NC(=S)c1cccc(-c2c[nH]c3cccnc23)c1 | > 100
64 | NC(=S)c1cc(-c2cn(CC(CF)CF)c3cc(CO)ccc23)ccc1F | < 20
65 | NC(=S)c1cccc(-c2cn(CC(C(F)F)C(F)F)c3cc(C(O)CCF)ccc23)c1 (stereo not given) | < 20
66 | Cc1c[nH]c2cccc(-c3cccc(C(N)=S)c3)c12 | > 100
67 | NC(=S)c1cc(-c2cn(CCC(F)F)c3cc(CO)ccc23)ccc1O | < 20
68 | NC(=S)c1cc(-c2cn(CCC(F)F)c3cc(CO)ccc23)c2scnc2c1 | < 20
69 | NC(=S)c1cccc(-c2cn(CCC(F)F)c3cc(CNC(=O)C(F)(F)F)ccc23)c1 | < 20
70 | NC(=S)c1cccc(-c2cc(C(F)(F)F)cc3c2ccn3CC(F)(F)F)c1 | 20 to 100
71 | CN(C)CCNc1ccc2c(-c3cccc(C(N)=S)c3)cn(CCCC(F)(F)F)c2c1 | > 100
72 | NC(=S)c1ccc(-c2ccccc2)s1 | > 100
73 | CS(=O)(=O)N1C2CCC1CC(n1cc(-c3cccc(C(N)=S)c3)c3ccc(N)cc31)C2 (stereo not given) | < 20
74 | COc1cc(C(N)=S)cc(-c2cn(CCCC(F)(F)F)c3cc(N)ccc23)c1 | 20 to 100
75 | NC(=S)c1cccc(-c2cn(CCCC(F)(F)F)c3cc(CNC(=O)CCc4c[nH]cn4)ccc23)c1 | < 20
76 | NC(=S)c1cccc(Oc2ccccc2)c1 | > 100
77 | NCc1ccc2c(c1)c(CC(CF)CF)cn2-c1cccc(C(N)=S)c1 | < 20
78 | CC(=O)NCc1ccc2c(-c3cccc(C(N)=S)c3)c[nH]c2c1 | 20 to 100
79 | CC(N)c1cccc(-c2cccc3[nH]ccc23)c1 (stereo not given) | > 100

Row | SMILES | IC50 [µM]
80 | NC(=S)c1cccc(-c2cn(CCC(F)F)c3cc(CNS(=O)(=O)C(F)(F)F)ccc23)c1 | < 20
81 | NC(=S)c1nccs1 | > 100
82 | NC(=S)c1cc(-c2c[nH]c3ccccc23)ccc1N | > 100
83 | NC(=S)c1cccc(-c2ccccn2)c1 | > 100
84 | NC(=S)c1cccc(-c2cn(CC(CF)CF)c3cc(NCCc4c[nH]cn4)ccc23)c1 | < 20
85 | NC(=S)c1cc(O)cc(-c2cn(CCCC(F)(F)F)c3cc(N)ccc23)c1 | 20 to 100
86 | NC(=S)c1cc(-c2cn(CCC(F)F)c3cc(CO)ccc23)ccn1 | < 20
87 | NC(=S)c1ccnc(-c2cn(CCC(F)F)c3cc(CO)ccc23)c1 | < 20
88 | NCCOCCOc1ccc(-c2cccc(C(N)=S)c2)c2cc[nH]c12 | 20 to 100
89 | NC(=S)c1cccc(-c2cn(CCCC(F)(F)F)c3cc(CNC(=O)Cc4csc(N)n4)ccc23)c1 | < 20
90 | Cc1cc(C(N)=S)cc(-c2ccc(O)cc2)c1 | > 100
91 | Cc1[nH]c2ccccc2c1-c1cccc(C(N)=S)c1 | > 100
92 | NC(=S)c1cccc(-c2cn(CCCC(F)(F)F)c3cc(CNC(=O)c4csc(N)n4)ccc23)c1 | < 20
93 | NC(=S)c1cccc(-c2cccc3[nH]c(CNCCCO)cc23)c1 | > 100
94 | Nc1ccc2c(-c3ccc4ccnc(N)c4c3)cn(CCC(F)F)c2c1 | < 20
95 | NC(=S)c1ccnc(-c2cn(CC(CF)CF)c3cc(CO)ccc23)c1 | < 20
96 | NC(=S)c1cccc(-c2c[nH]c3cccc(O)c23)c1 | > 100
97 | NC(=S)c1c[nH]c(=O)c(-c2cn(CCC(F)F)c3cc(CO)ccc23)c1 | < 20
98 | Cc1c(CO)ccc2c(-c3cccc(C(N)=S)c3)cn(CCCC(F)(F)F)c12 | < 20
99 | NC(=S)c1cccc(-n2cc(CC(CF)CF)c3cc(CO)ccc32)c1 | < 20
100 | NC(=S)c1cccc(-c2cn(CCCC(F)(F)F)c3cc(CNCc4c[nH]cn4)ccc23)c1 | < 20
101 | NC(=S)c1cccc(-c2cn(CCCC(F)(F)F)c3cc(CNC(=O)c4ccccc4)ccc23)c1 | < 20
102 | O=C1NCc2c1cccc2-c1ccc(O)cc1 | > 100
103 | NC(=S)c1cccc(-c2cccc3[nH]ccc23)c1O | > 100
104 | NC(=S)c1cccc(-c2c[nH]c3cc4cc[nH]c4cc23)c1 | < 20
105 | Cc1ncsc1-c1ccc(CNC(=O)[C@@H]2C[C@@H](O)CN2C(=O)[C@@H](NC(=O)COCCOCCNC(=O)CCC(=O)Nc2ccc3c(-c4cccc(C(N)=S)c4)cn(CC(CF)CF)c3c2)C(C)(C)C)cc1 | < 20
